The record followed here is doi:10.1101/2025.10.10.681657 (bioRxiv, 2025).

What is called ΔTm is the shift of the melting midpoint relative to a reference. As usually defined, the Kd is the free concentration of one partner at which half of the binding sites on the other are occupied at equilibrium, for simple one-to-one binding. The KD is the equilibrium constant for the complex coming apart.

Series [1] concerns U4/U6 snRNA construct 32 nt (No. 4), Cy5 (RNA, hairpin) CGCAUAUCAGUGAGGAUUCGUCCGAGAUUGUG
As to the kind of experiment: small molecule microarray. The settings on record: 1x PBS; pH 7.4, 0.005% Tween 20; 50 nM RNA; immobilised compound; Z-score cutoff 3.

For series [2], the system named is U4/U6 snRNA construct 92 nt (WT, No. 1), Cy5 (RNA, junction) GGCCUUAUGCACGGGAAAUACGCAUAUCAGUGAGGAUUCGUCCGAGAUUGUGUUUUUGCUGGUGUAAAUCAGCAGUUCCCCUGCAUAAGGCU
Briefly: small molecule microarray. The settings on record: 1x PBS; pH 7.4, 0.005% Tween 20; 50 nM RNA; immobilised compound; Z-score cutoff 3.

Series [3] deals with 79 nt RNA (lacking the K-turn). As to the kind of experiment: SMM screening, 79 nt RNA. Format: binding, yeast. The settings on record: Z-score cutoff 3. The procedure: (§1) For high-throughput screening using SMM, the microarray slides were prepared based on previously reported methods using a robotic microarray printer (Arrayjet, UK).[34] Each slide contained ~7,000 compounds with duplicate spots of each sample. To perform screening, the SMM slide surface was first blocked with 500 nM yeast total tRNA (Invitrogen) in screening buffer (1xPBS, pH 7.4, 0.005% Tween 20) for 2 h prior to target RNA incubation. Then, the 5′-Cy5-labeled U4/U6 RNA construct was folded as above described, followed by buffer exchange to screening buffer. After annealing, the RNA was diluted to 50 nM in screening buffer and incubated with the microarray for another 2 h. After that, the glass slide was gently washed with PBST, PBS, and ddH2O three times in each buffer solution and dried in a centrifuge at 1,700 g for 2 min. Finally, the microarray was imaged with an InnoScan 1100 AL fluorescence scanner (Innopsys, France) at 635 nm and the hits were identified based on the quantified fluorescent intensity of each spot.

Series [4] has as its system K-turn-containing RNAs (92 nt, 68 nt, and 32 nt). Briefly: SMM screening, K-turn-containing RNAs. Format: binding, yeast. The settings on record: Z-score cutoff 3. The procedure: as §1
Series [5] concerns U4/U6 snRNA construct 79 nt (No. 2, K-turn disrupted), Cy5 (RNA, junction) GGCCUUAUGCACGGGAAAUACGCAUAUCGUAAGAUUGUGUUUUUGCUGGUGUAAAUCAGCAGUUCCCCUGCAUAAGGCU
As to the kind of experiment: small molecule microarray. The settings on record: 1x PBS; pH 7.4, 0.005% Tween 20; 50 nM RNA; immobilised compound; Z-score cutoff 3.

The test system of series [6] is U4/U6 snRNA construct 68 nt (No. 3), Cy5 (RNA, junction) GGGAAAUACGCAUAUCAGUGAGGAUUCGUCCGAGAUUGUGUUUUUGCUGGUGUAAAUCAGCAGUUCCC
Briefly: small molecule microarray. The settings on record: 1x PBS; pH 7.4, 0.005% Tween 20; 50 nM RNA; immobilised compound; Z-score cutoff 3.

In series [7] the test system is U4U6 RNA for SHAPE-MaP (T7 transcript of Template) (RNA, junction) GGGCCUUCGGGCCAAGGCCUUAUGCACGGGAAAUACGCAUAUCAGUGAGGAUUCGUCCGAGAUUGUGUUUUUGCUGGUGUAAAUCAGCAGUUCCCCUGCAUAAGGCUUCGAUCCGGUUCGCCGGAUCCAAAUCGGGCUUCGGUCCGGUUC
Briefly: SHAPE-MaP (2A3). The conditions noted are these: KCl (3.3x folding buffer: 1023 mM); potassium phosphate pH 7.0, EDTA; 100 μM compound.

The test system of series [8] is U4/U6 snRNA construct 92 nt (WT, No. 1), unlabeled (RNA, junction) GGCCUUAUGCACGGGAAAUACGCAUAUCAGUGAGGAUUCGUCCGAGAUUGUGUUUUUGCUGGUGUAAAUCAGCAGUUCCCCUGCAUAAGGCU
Briefly: CD melting (260 nm). The settings on record: PBS; 5 μM RNA, 100 μM compound, 5% DMSO.

The target in series [9] is U4/U6 snRNA construct (92 nt). As to the kind of experiment: SPR binding to U4/U6 snRNA construct (92 nt). Also noted: species or system yeast. The conditions noted are these: 92 nt RNA, steady-state fit; >100 = signal appeared at 100 μM but failed to fit. On the procedure: SPR experiments were carried out using an SPR optical biosensor (BIAcore 3000, Cytiva, USA) based on reported methods with minor modifications.[35] To avoid RNA degradation during long-time injections, the whole microfluidic system was washed by priming 50% RNase Zap buffer and RNase-free water one day before the experiments. Then, by using running buffer (1xPBS, pH7.4, 0.005% Tween 20, 5% DMSO) at a flow rate of 5 μL/min, the binding assays were performed. In brief, a CM5 chip surface coated with carboxylated dextran was activated by standard EDC/NHS amine-coupling protocol and then conjugated with streptavidin (200 ng/mL in 10 mM sodium acetate buffer, pH 4.5) for 30 min, resulting in 4000~6000 response units (RUs) signal. After streptavidin conjugation, the surface was deactivated (1 M ethanolamine, pH 8.5) for 10 min and regenerated (10 mM NaOH) for 2 min to remove unbound SA. Then, the folded U4/U6 RNA with biotin-label at 5′ end was prepared (according to the above-mentioned method) at 5 μM and injected in flow-cell (Fc) 2 for 30 min while Fc1 was kept blank as a reference. Then, the system continued flowing the running buffer until the baseline was stable before future steps.
To detect binding between small molecules and U4/U6 snRNA, a 50 μL compound solution was applied to both Fc1 and Fc2 channels simultaneously at a higher flow rate (25 μL/min). The binding curve contains 120 s association and 200 s dissociation. A pulse of 10 mM NaOH injection was used for regeneration if needed. To measure the dissociation constant (KD), titrations of compound solutions with a serial dilution were applied. The KD value was then calculated by fitting the binding curves based on a steady-state model in BIAevaluation 4.0 software and plotted in GraphPad Prism 9.

Series [10] deals with U4/U6 snRNA construct 92 nt (WT, No. 1) (RNA, junction) GGCCUUAUGCACGGGAAAUACGCAUAUCAGUGAGGAUUCGUCCGAGAUUGUGUUUUUGCUGGUGUAAAUCAGCAGUUCCCCUGCAUAAGGCU
Briefly: SPR steady state. The settings on record: 1x PBS, pH 7.4, 0.005% Tween 20, 5% DMSO.

A further series has as its target T1, Snu13 (yeast (species ), UniProt P39990 1-126).
T1 sequence: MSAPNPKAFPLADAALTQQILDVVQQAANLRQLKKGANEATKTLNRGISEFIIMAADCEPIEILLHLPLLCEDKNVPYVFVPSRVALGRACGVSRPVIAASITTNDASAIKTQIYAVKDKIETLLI
Briefly: MST; no compound; 50 nM RNA; MST: 10 mM HEPES pH 7.4, 150 mM NaCl, 0.005% Tween 20, 50 nM RNA (protein buffer, mixed 1:1 with RNA); EMSA: 20 mM Tris-Cl pH 7.6, 150 mM NaCl, 0.1% Triton X-100, 2 mM DTT, room temperature, 8% native PAGE; RNA folded in 11.25 mM K-phosphate pH 7.0, 310 mM KCl, 5 mM EDTA. The settings on record: label: 5'-Cy5; folded single strand; three-way junction, U4 5' stem-loop with 5x2 internal loop (K-turn).

In the case of `Cc1ccc(-n2ncc3c(NCCCN(C)C)ncnc32)cc1Cl` [Compound 1], the binding entry in series [1] was “yes”; in series [2], “yes”; in series [5], “no”; in series [6], “yes”; in series [7], “yes”. Besides, the SMM binding signal result in series [3] is “negative results”; in [4], “positive binding signals”. The thermal shift (ΔTm) in series [8] is -1.5 ± 0.5 °C. In series [9], this molecule gave a dissociation constant (Kd) of 50.3 ± 1.3 µM. Besides, the KD in [10] was 50.3 ± 1.3 µM.

Turning to `CCc1nnc(-c2nnc(NCCCN(C)C)c3ccccc23)o1` [Compound 2], the binding entry is on record as “yes” in series [1], “yes” in [2], “no” in [5] and “yes” in [6]. The SMM binding signal result is listed as “negative results” in series [3] and “positive binding signals” in [4]. The ΔTm result in series [8] was “+3.3 ± 0.3 °C”. Besides, the affinity in series [9], expressed as Kd, was 30.5 ± 8.4 µM. Besides, in [10], the KD worked out at 30.5 ± 8.4 µM.

As for `CCc1nnc(-c2nnc(NCCN(C)C)c3ccccc23)o1` [Compound 3], in [9], the Kd came out at 29.2 ± 8.6 µM. Further, in series [10], the dissociation constant (KD) came out at 29.2 ± 8.6 µM.

`CCc1nnc(-c2nnc(NCCN(CC)CC)c3ccccc23)o1` [Compound 4]: the Kd in series [9] is greater than 100 µM. Further, in series [10] (signal at 100 μM, not fitted), the dissociation constant (KD) is greater than 100 µM.

In turn, `CCCCNc1nnc(-c2nnc(CC)o2)c2ccccc12` [Compound 5] had a Kd in series [9] greater than 100 µM.

Molecule `CCc1nnc(-c2nnc(NCCOC)c3ccccc23)o1` [Compound 6] came in with a dissociation constant (Kd) in series [9] greater than 100 µM.

For `CCc1nnc(-c2nnc(NCCCOC)c3ccccc23)o1` [Compound 7], in [9], the equilibrium dissociation constant (Kd) is greater than 100 µM.

With `CCc1nnc(-c2nnc(NCc3cccnc3)c3ccccc23)o1` [Compound 8], the Kd in [9] was greater than 100 µM.

For `CCc1nnc(-c2nnc(NCCCN3CCOCC3)c3ccccc23)o1` [Compound 9], in series [9], the Kd was 61.3 ± 38.9 µM. This molecule returned a KD in series [10] of 61.3 ± 38.9 µM.

Molecule `CCc1nnc(-c2nnc(NCCCN3CCN(C)CC3)c3ccccc23)o1` [Compound 10] gave a Kd in series [9] of 51.4 ± 8 µM. In series [10], this molecule yielded a KD of 51.4 ± 8.0 µM.

With `CCc1nnc(-c2nnc(NCCC(C)C)c3ccccc23)o1` [Compound 11], the dissociation constant Kd in [9] was greater than 100 µM.

On to `CCN(CC)CCNc1nnc(-c2nnc(C3CC3)o2)c2ccccc12` [Compound 12], for which the equilibrium dissociation constant (Kd) in series [9] turned out to be 24.2 ± 7 µM. The molecule also showed a KD in series [10] of 24.2 ± 7.0 µM.

In series [9], `COCCNc1nnc(-c2nnc(C3CC3)o2)c2ccccc12` [Compound 13] yielded a Kd greater than 100 µM.

`CN(C)CCNc1nnc(-c2nc(C3CC3)no2)c2ccccc12` [Compound 14] registered a Kd in series [9] of 32.8 ± 11 µM. In addition, the dissociation constant KD in series [10] worked out at 32.8 ± 11.0 µM.

In the case of `CCN(CC)CCNc1nnc(-c2nc(C3CC3)no2)c2ccccc12` [Compound 15], in [9], the Kd came out at 23.4 ± 6 µM. In series [10], this molecule yielded a dissociation constant (KD) of 23.4 ± 6.0 µM.

`CCCCNc1nnc(-c2nc(C3CC3)no2)c2ccccc12` [Compound 16]: in [9], the Kd is greater than 100 µM.

In series [9], `COCCNc1nnc(-c2nc(C3CC3)no2)c2ccccc12` [Compound 17] registered a Kd greater than 100 µM.

Regarding `c1cncc(CNc2nnc(-c3nc(C4CC4)no3)c3ccccc23)c1` [Compound 18], in series [9], the Kd is greater than 100 µM.

The molecule `c1ccc2c(-c3nc(C4CC4)no3)nnc(NCCN3CCOCC3)c2c1` [Compound 19] came in with a dissociation constant Kd in [9] of 34.5 ± 11.3 µM. This molecule showed a dissociation constant KD in series [10] of 34.5 ± 11.3 µM.

`c1ccc2c(-c3nc(C4CC4)no3)nnc(NCCCN3CCOCC3)c2c1` [Compound 20]: binding in [9] was put at a Kd of 42.1 ± 8.6 µM. In addition, in [10], the equilibrium dissociation constant (KD) is 42.1 ± 8.6 µM.

As for `CN1CCN(CCCNc2nnc(-c3nc(C4CC4)no3)c3ccccc23)CC1` [Compound 21], binding in series [9] was characterised by a dissociation constant (Kd) of 23 ± 5.3 µM. This molecule gave a KD in series [10] of 23.0 ± 5.3 µM.

In turn, `CN(C)CCCNc1nnc(-c2nc(-c3ccc(F)cc3)no2)c2ccccc12` [Compound 23] yielded an equilibrium dissociation constant (Kd) in [9] of 11.9 ± 7.1 µM. This molecule also showed a KD in [10] of 11.9 ± 7.1 µM.

`Fc1ccc(-c2noc(-c3nnc(NCc4cccnc4)c4ccccc34)n2)cc1` [Compound 24] had a Kd in [9] greater than 100 µM. In series [10] (signal at 100 μM, not fitted), this molecule showed a dissociation constant (KD) greater than 100 µM.

In the case of `CN1CCN(CCNc2nnc(-c3nc(-c4ccc(F)cc4)no3)c3ccccc23)CC1` [Compound 25], the dissociation constant Kd in series [9] worked out at 13.9 ± 3.2 µM. In addition, the dissociation constant KD in [10] stood at 13.9 ± 3.2 µM.

B1: U4/U6 snRNA 92 nt construct (structured_RNA)
RNA: GGCCUUAUGCACGGGAAAUACGCAUAUCAGUGAGGAUUCGUCCGAGAUUGUGUUUUUGCUGGUGUAAAUCAGCAGUUCCCCUGCAUAAGGCU
B1 came in with a Kd with Snu13 of 0.062 ± 0.004 µM.
